pEC50: −log10 of the molar value.
Columns and labels:
[1] = target: T1, Estrogen receptor (Homo sapiens) (UniProt P03372); assay: Displacement of [3H]estradiol from human full-length ERalpha after 18 to 24 hrs by relative binding affinity/competitive radiometric binding assay relative to estradiol; conditions: concentration not given here
T1 sequence (whole entry): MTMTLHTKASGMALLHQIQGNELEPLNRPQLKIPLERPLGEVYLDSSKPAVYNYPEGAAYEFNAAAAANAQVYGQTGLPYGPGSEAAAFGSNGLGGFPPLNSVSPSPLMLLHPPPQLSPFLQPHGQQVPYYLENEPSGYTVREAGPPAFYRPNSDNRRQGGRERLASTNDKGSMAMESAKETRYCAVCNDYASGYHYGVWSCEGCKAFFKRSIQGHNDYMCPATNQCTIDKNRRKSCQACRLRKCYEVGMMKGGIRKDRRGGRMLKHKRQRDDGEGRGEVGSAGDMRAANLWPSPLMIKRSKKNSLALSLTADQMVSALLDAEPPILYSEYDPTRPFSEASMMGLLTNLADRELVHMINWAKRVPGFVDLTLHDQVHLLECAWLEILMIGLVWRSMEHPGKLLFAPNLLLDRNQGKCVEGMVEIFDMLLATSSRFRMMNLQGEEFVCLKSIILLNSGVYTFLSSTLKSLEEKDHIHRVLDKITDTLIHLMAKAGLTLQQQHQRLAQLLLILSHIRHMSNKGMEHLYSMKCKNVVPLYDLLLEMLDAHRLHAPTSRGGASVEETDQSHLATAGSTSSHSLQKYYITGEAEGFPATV

Estrogen receptor beta [2] = target: T2, Estrogen receptor beta (Homo sapiens, UniProt Q92731); assay: Displacement of [3H]estradiol from human full-length ERbeta after 18 to 24 hrs by relative binding affinity/competitive radiometric binding assay relative to estradiol; conditions: concentration not given here
T2 sequence (Q92731 whole entry): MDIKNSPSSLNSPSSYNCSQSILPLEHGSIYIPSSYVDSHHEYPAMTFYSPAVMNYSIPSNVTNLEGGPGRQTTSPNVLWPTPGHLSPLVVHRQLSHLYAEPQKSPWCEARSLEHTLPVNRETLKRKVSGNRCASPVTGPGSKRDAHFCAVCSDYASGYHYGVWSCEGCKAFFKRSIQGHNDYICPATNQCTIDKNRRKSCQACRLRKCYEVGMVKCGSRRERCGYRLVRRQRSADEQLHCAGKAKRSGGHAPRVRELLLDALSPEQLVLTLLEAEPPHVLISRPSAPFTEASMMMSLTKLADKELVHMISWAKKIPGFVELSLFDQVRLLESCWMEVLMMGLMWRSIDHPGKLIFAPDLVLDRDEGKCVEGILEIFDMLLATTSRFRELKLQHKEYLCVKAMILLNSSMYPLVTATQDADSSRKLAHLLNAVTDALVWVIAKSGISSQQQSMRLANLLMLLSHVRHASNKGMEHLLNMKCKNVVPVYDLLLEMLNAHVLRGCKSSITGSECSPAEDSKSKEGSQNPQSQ

Estrogen receptor [3] = target: T3, Estrogen receptor (Homo sapiens, UniProt P03372)
T3 sequence (P03372 whole entry): T1 sequence (whole entry)
Description: Agonist activity at human ERalpha expressed in human HEC1 cells assessed as transcriptional activation after 24 hrs by ERE-luciferase reporter gene transfection assay

Estrogen receptor beta [4] = target: T2, Estrogen receptor beta
Description: Agonist activity at human ERbeta expressed in human HEC1 cells assessed as transcriptional activation after 24 hrs by ERE-luciferase reporter gene transfection assay

Estrogen receptor [5] = target: T3, Estrogen receptor; remark: listed apart in the source
Description: Agonist activity at human ERalpha in human MCF7 cells assessed as progesterone receptor endogenous genes activation after 24 hrs by qPCR

Estrogen receptor beta [6] = target: T2, Estrogen receptor beta; remark: listed apart in the source
Description: Agonist activity at human ERbeta in human MCF7 cells assessed as otubain 2 endogenous genes activation after 24 hrs by qPCR

Row | SMILES | inhibition [1] [%] | inhibition (Estrogen receptor beta [2]) [%] | pEC50 (Estrogen receptor [3]) | pEC50 (Estrogen receptor beta [4]) | pEC50 (Estrogen receptor [5]) | pEC50 (Estrogen receptor beta [6])
1 | C/C(=N\O)c1cc(-c2ccc(O)cc2)ccc1O | 0.54 | 46 | 7.53 | 8.40 | 7.08 | 7.90
2 | COc1ccc(-c2ccc(O)c(/C(C)=N/O)c2)cc1F | < 0.005 | < 0.005 | – | – | – | –
3 | COc1ccc(-c2ccc(O)c(/C(C)=N/O)c2)cc1C | < 0.005 | < 0.005 | – | – | – | –
4 | CC/C(=N\O)c1cc(-c2ccc(O)cc2)ccc1O | 3 | 46 | – | – | – | –
5 | C/C(=N\O)c1cc(-c2ccc(Cl)cc2)ccc1O | < 0.005 | 0.099 | – | – | – | –
6 | O/N=C(/c1cc(-c2ccc(O)cc2)ccc1O)C(F)(F)F | 0.036 | 0.76 | – | – | – | –
7 | C/C(=N\O)c1cc(-c2ccc(O)c(F)c2)ccc1O | 0.16 | 12 | 6.71 | 7.83 | 5.68 | 7.46
8 | C/C(=N\O)c1cc(-c2ccc(O)c(Cl)c2)ccc1O | 0.033 | 1.1 | – | – | – | –
9 | COc1ccc(-c2ccc(O)c(/C(C)=N/O)c2)cc1Cl | < 0.005 | < 0.005 | – | – | – | –
10 | C/C(=N\O)c1cc(-c2ccc(O)c(C)c2)ccc1O | 0.1 | 1.6 | – | – | – | –
11 | COc1ccc(-c2ccc(O)c(/C(C)=N/O)c2)cc1 | < 0.005 | 0.011 | – | – | – | –
12 | CC/C(=N\O)c1cc(-c2ccc(O)c(F)c2)ccc1O | 1.9 | 49 | – | – | – | –
13 | C/C(=N\O)c1cc(-c2ccc(F)cc2)ccc1O | < 0.005 | 0.015 | – | – | – | –
